Results from patent US9346778B2, “Carbofluorescein lactone ion indicators and their applications” (AAT Bioquest, Inc., priority 2007, dated 2016).
“Also recorded” adds a separate entry of the source.

What was measured:
[1] = Spectral property comparison (excitation and emission wavelength) of indicator acids; assay type: physicochemical
Source text: The red-shift excitation and emission wavelengths provide a great advantage for the use of current invention in the high throughput screening of new drug candidates since there are many fluorescent compounds of short wavelength in the screening compound libraries. Fluo-3 AM and Fluo-4 AM are currently used in the high throughput screening of new drug candidates, but their short wavelength overlap with the fluorescence of some fluorescent compounds in the screening compound libraries, causing severe interference.

[2] = tested on: CHO cells; test: Cell-induced absorption spectral shift of indicator AM esters, absence vs presence of CHO cells; assay type: cell-based; conditions: for Cell-Induced Excitation Wavelength Shift (nm): absence vs presence of CHO cells
Source text: FIG. 7. The cell-induced absorption spectral shift comparison of Fluo-3 AM and Compound 16. The absorption spectra are normalized at their maximum absorption peak. Solid lines represent the absorption spectra of Compound 16 in the absence of CHO cells (left) and in the presence of CHO cells (right) respectively. Dot lines represent the absorption spectra of Fluo-3 AM in the absence of CHO cells (left) and in the presence of CHO cells (right) respectively.
FIG. 8. The cell-induced absorption spectral shift comparison of Fluo-4 AM and Compound 85. The absorption spectra are normalized at their maximum absorption peak. Solid lines represent the absorption spectra of Compound 85 in the absence of CHO cells (left) and in the presence of CHO cells (right) respectively. Dot lines represent the absorption spectra of Fluo-4 AM in the absence of CHO cells (left) and in the presence of CHO cells (right) respectively.
Fluo-3 AM and Fluo-4 AM are predominantly used for monitoring intracellular calcium signal. However, Fluo-3 AM, Fluo-4 AM and their cell-hydrolyzed products (Fluo-3 and Fluo-4) can be simultaneously excited by the same excitation source (see FIGS. 7 and 8), causing high assay background. The present application is directed to a family of fluorescent dyes that are useful for preparing fluorescent metal ion indicators. The indicators include a carbofluorescein lactone fluorophore that is incorporated with an ionophore, and are useful for the detection, discrimination and quantification of metal cations.
In one aspect of the invention, the disclosed calcium indicators have the minimal assay background in their masked form since their non-hydrolyzed AM esters cannot be excited in the range of visible wavelengths. […] The fluorescence outside cells generates the detrimental assay background. It is evident that the calcium indicators of the invention (e.g., Compound 16) have unexpected spectral properties that enable more sensitive detection of calcium in cells compared to the existing fluorescein-based calcium indicators (such as Fluo-3 AM).
It is evident that the calcium indicators of the invention (e.g., Compound 85) have unexpected spectral properties that enable more sensitive detection of calcium in cells compared to the existing fluorescein-based calcium indicators (such as Fluo-4 AM).

[3] = Calcium response of indicator measured in fluorescence excitation/emission in PBS buffer; assay type: binding; conditions: 5 μM in PBS buffer, excited at 555 nm
Protocol: FIG. 5. Calcium responses of Compound 79 (5 μM) measured in fluorescence excitation in PBS buffer solution. The calcium concentrations are indicated in the graph in the unit of μM.
FIG. 6. Calcium responses of Compound 79 (5 μM) measured in fluorescence emission in PBS buffer solution. The calcium concentrations are indicated in the graph in the unit of μM.

[4] = tested on: CHO cells stably transfected with muscarinic receptor 1; test: Calcium flux assay in cells loaded with indicator AM ester, ATP stimulation, microplate reader or imaging; assay type: cell-based; conditions: compared with Fluo-4 AM
Protocol: In yet another aspect of the invention, the fluorescent ion indicators are used in a method to measure calcium flux. Cells (e.g., CHO cells) stably transfected with muscarinic receptor 1 are plated—e.g., at 60,000 cells per 100 μl per well in F12 with 5% FBS and 1% glutamine in a 96-well black wall/clear bottom Costar plate—and incubated (e.g., in 5% CO2 at 37° C. overnight). The growth medium is removed and the cells are incubated with a fluorescent ion indicator (e.g., with 100 μl/well of 1-8 μM Fluo-4 AM or Compound 85 in Hanks and HEPES buffer for 1 hour at room temperature) with or without probenecid. […]
Calcium flux assays are preferred methods in drug discovery for screening G protein coupled receptors (GPCR). The fluorescent indicators of the invention provide a homogeneous fluorescence-based assay for detecting the intracellular calcium mobilization. […] When the sample cells are stimulated with screening compounds, the receptor triggers a release of intracellular calcium, which then greatly increases the fluorescence of the intracellular indicators. The combination of long wavelength fluorescence properties, high sensitivity, and often a >100 times increase in fluorescence upon binding with calcium makes the disclosed indicators well-suited for measurement of cellular calcium. […]

Row | Compound | Emission Wavelength (nm) [1] [nm] | Excitation Wavelength (nm) [1] [nm] | Residual absorption of dye AM at the maximum excitation of dye acid [2] [%] | Cell-Induced Excitation Wavelength Shift (nm) [2] [nm] | other results
1 | Cc1ccc(N(CC(=O)O)CC(=O)O)c(OCCOc2cc(C3=C4C=C(Cl)C(=O)C=C4C(C)(C)c4cc(O)c(Cl)cc43)c(C(=O)O)cc2N(CC(=O)O)CC(=O)O)c1 [Compound 11] | 584 | 558 | – | – | –
2 | CC(=O)OCOC(=O)CN(CC(=O)OCOC(C)=O)c1ccc(C)cc1OCCOc1cc2c(cc1N(CC(=O)OCOC(C)=O)CC(=O)OCOC(C)=O)C(=O)OC21c2cc(Cl)c(OC(C)=O)cc2C(C)(C)c2cc(OC(C)=O)c(Cl)cc21 [Compound 16] | – | – | 0 | 278 | absorption of masked AM form at excitation wavelength ([2]; at 555 nm): essentially no absorption
3 | Cc1ccc(N(CC(=O)O)CC(=O)O)c(OCCOc2cc(C3=C4C=C(F)C(=O)C=C4C(C)(C)c4cc(O)c(F)cc43)c(C(=O)O)cc2N(CC(=O)O)CC(=O)O)c1 [Compound 79] | 582 | 554 | – | – | calcium binding [3]: binds calcium
4 | CC(=O)OCOC(=O)CN(CC(=O)OCOC(C)=O)c1ccc(C)cc1OCCOc1cc2c(cc1N(CC(=O)OCOC(C)=O)CC(=O)OCOC(C)=O)C(=O)OC21c2cc(F)c(OC(C)=O)cc2C(C)(C)c2cc(OC(C)=O)c(F)cc21 [Compound 85] | – | – | 0 | 277 | absorption of masked AM form at excitation wavelength ([2]; at 555 nm): essentially no absorption; fluorescence intensity enhancement upon calcium stimulation ([4]; absence of probenecid): much greater than that of Fluo-4 AM; also recorded: better fluorescence intensity enhancement upon calcium stimulation than that of Fluo-4 AM; loading into cells [4]: load into cells much better than Fluo-4 AM
5 | CC(=O)OCOC(=O)CN(CC(=O)OCOC(C)=O)c1ccc(C)cc1OCCOc1cc(-c2c3cc(Cl)c(=O)cc-3oc3cc(OCOC(C)=O)c(Cl)cc23)ccc1N(CC(=O)OCOC(C)=O)CC(=O)OCOC(C)=O [Fluo-3 AM, reference compound] | – | – | 7.6 | 36 | absorption of masked AM form at excitation wavelength ([2]; at 488 nm): substantial absorption
6 | Cc1ccc(N(CC(=O)O)CC(=O)O)c(OCCOc2cc(-c3c4cc(Cl)c(=O)cc-4oc4cc(O)c(Cl)cc34)ccc2N(CC(=O)O)CC(=O)O)c1 [Fluo-3, reference compound] | 526 | 504 | – | – | –
7 | CC(=O)OCOC(=O)CN(CC(=O)OCOC(C)=O)c1ccc(C)cc1OCCOc1cc(-c2c3cc(F)c(=O)cc-3oc3cc(OCOC(C)=O)c(F)cc23)ccc1N(CC(=O)OCOC(C)=O)CC(=O)OCOC(C)=O [Fluo-4 AM, reference compound] | – | – | 7.8 | 38 | absorption of masked AM form at excitation wavelength ([2]; at 488 nm): substantial absorption
8 | Cc1ccc(N(CC(=O)O)CC(=O)O)c(OCCOc2cc(-c3c4cc(F)c(=O)cc-4oc4cc(O)c(F)cc34)ccc2N(CC(=O)O)CC(=O)O)c1 [Fluo-4, reference compound] | 515 | 493 | – | – | –
